This is an account of results in ChEMBL document CHEMBL4680280, “Modulation of the Innate Immune Response by Targeting Toll-like Receptors: A Perspective on Their Agonists and Antagonists” (J Med Chem, 2020).

SMILES strings stand for the structures.

Assay [1] addresses T1, Toll-like receptor 2 (Homo sapiens, UniProt O60603). The experiment in a line: Agonist activity at TLR2 in HEK-Blue hTLR2 cells assessed as NF-kappaB activation preincubated for 24 hrs followed by replacement of medium containing compound and measured after 0.5 to 1 hrs by Quanti-blue SEAP assay.
In assay [2] the target is Toll-like receptor 4 (Homo sapiens, UniProt O00206). The experiment in a line: Modulation of TLR4 in human THP1 cells assessed as reduction in LPS-induced TLR4 expression pretreated for 2 hrs followed by LPS challenge and measured after 18 hrs by flow cytometry. In kind it is cell-based, THP-1. For orientation: In flow cytometry, cells or beads pass a laser one at a time.
Sequence of Toll-like receptor 4 (O00206 whole entry): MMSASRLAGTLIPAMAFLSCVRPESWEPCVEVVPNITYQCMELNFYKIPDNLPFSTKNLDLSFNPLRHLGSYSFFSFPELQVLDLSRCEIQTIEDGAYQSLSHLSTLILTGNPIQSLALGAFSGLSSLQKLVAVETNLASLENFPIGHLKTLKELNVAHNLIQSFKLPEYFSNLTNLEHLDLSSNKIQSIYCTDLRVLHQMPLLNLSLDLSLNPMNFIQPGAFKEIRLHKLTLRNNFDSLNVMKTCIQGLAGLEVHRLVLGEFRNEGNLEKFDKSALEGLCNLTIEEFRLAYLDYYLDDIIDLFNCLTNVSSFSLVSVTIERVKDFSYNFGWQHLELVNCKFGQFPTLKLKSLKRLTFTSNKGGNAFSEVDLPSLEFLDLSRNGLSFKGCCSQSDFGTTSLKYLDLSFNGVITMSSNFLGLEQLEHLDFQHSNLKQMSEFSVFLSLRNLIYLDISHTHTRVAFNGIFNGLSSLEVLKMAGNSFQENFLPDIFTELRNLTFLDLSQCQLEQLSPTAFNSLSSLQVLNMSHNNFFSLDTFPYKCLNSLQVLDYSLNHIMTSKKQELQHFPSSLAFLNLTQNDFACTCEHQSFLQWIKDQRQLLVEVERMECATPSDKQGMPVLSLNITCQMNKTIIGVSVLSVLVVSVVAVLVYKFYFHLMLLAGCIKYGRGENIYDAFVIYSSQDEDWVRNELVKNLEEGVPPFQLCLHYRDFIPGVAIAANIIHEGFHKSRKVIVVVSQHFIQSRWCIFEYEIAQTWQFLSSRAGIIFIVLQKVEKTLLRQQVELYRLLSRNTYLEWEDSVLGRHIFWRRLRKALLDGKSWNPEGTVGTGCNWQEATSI

In assay [3] the target is T1, Toll-like receptor 2. The experiment in a line: Agonist activity at TLR2 (unknown origin).
For assay [4], the target named is Toll-like receptor 5 (Homo sapiens, UniProt O60602). The assay is described as follows: Inhibition of Flagellin-BS binding to human TLR5 expressed in HEK293 cells harboring SEAP reporter gene preincubated for 24 hrs followed by compound wash out and subsequent Flagellin-BS addition along with compound and measured after 0.5 hrs by QUANTI-Blue assay. In kind it is cell-based. For orientation: A reporter such as luciferase makes a cellular process visible.
Sequence of Toll-like receptor 5 (O60602 whole entry): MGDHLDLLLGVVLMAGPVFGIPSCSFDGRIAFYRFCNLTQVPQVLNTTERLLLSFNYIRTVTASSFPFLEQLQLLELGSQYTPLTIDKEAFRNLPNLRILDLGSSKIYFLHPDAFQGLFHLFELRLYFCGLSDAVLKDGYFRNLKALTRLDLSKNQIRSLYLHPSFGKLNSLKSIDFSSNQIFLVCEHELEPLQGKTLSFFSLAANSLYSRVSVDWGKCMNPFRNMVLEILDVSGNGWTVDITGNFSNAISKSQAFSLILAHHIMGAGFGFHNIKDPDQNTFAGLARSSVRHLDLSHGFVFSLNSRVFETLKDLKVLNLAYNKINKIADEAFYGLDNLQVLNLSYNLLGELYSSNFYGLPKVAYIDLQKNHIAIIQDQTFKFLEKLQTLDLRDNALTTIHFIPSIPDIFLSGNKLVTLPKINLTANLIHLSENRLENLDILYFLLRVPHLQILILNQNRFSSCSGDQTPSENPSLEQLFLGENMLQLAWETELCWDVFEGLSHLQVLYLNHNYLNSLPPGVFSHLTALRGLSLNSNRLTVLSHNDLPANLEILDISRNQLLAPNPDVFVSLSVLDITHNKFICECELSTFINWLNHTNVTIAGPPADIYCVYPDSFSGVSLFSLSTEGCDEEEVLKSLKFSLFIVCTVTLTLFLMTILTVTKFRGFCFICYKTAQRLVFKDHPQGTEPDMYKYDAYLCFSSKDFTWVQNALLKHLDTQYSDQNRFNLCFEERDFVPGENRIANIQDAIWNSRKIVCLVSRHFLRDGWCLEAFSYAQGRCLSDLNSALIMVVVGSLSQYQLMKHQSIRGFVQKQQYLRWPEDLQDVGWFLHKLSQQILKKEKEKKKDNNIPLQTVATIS

T1 sequence (O60603 whole entry): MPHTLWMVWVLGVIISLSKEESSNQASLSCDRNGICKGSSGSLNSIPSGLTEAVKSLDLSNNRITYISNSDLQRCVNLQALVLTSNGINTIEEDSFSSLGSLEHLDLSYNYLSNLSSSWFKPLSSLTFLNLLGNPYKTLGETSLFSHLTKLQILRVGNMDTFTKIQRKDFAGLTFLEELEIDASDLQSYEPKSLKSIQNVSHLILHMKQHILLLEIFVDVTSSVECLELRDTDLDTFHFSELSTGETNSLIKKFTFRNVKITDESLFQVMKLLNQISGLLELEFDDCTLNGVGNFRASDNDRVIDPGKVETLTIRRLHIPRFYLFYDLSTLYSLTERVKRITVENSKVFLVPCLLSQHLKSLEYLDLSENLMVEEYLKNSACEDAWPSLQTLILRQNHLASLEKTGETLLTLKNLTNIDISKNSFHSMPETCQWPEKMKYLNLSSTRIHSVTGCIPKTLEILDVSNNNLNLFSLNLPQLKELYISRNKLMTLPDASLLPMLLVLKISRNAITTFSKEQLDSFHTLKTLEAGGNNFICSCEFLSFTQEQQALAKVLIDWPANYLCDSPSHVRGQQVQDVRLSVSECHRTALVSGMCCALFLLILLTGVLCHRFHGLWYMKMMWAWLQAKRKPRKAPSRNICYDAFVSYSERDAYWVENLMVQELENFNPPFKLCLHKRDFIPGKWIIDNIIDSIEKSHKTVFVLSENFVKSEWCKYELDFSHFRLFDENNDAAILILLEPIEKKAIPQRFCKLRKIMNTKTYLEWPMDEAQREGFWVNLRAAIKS

Turning to `CCOC(=O)c1c(NC(=O)N2CCN(C)CC2)sc2c1CCC2`, in assay [1], the EC50 turned out to be 550 nM.
Turning to `C=C1C(=O)O[C@@H]2[C@H]3O[C@]3(C)CC/C=C(\C)CC[C@@H]12`, the IC50 in assay [2] is 1400 nM.
In turn, `CCCCCCCCCCCCCCCC(=O)OC[C@H](CSC[C@H](NC(C)=O)C(=O)N[C@@H](CO)C(=O)N[C@@H](CCCCN)C(=O)N[C@@H](CCCCN)C(=O)N[C@@H](CCCCN)C(=O)N[C@@H](CCCCN)C(=O)N[C@@H](CO)C(=O)N[C@@H](CC(C)C)C(=O)N[C@H](CN[C@@H](CCSC)C(=O)N[C@@H](Cc1c[nH]c2ccccc12)C(=O)N[C@H](C(=O)N[C@H](C(=O)N[C@@H](CCC(N)=O)C(=O)N[C@H](C(=O)O)C(C)C)[C@@H](C)O)[C@@H](C)CC)CC(C)C)OC(=O)CCCCCCCCCCCCCCC` returned an EC50 in assay [3] of 0.28 nM.
In the case of `CNc1ccc([N+](=O)[O-])cc1-n1cnc(-c2ccc(C(F)(F)F)cc2O)c1`, the EC50 in assay [1] was 4.88 nM.
`CCCCCCCCCCCCCCCC(=O)OCCCC[C@H](CSC[C@H](N)C(=O)N[C@@H](CO)C(=O)N[C@@H](CCCCN)C(=O)N[C@@H](CCCCN)C(=O)N[C@@H](CCCCN)C(=O)N[C@@H](CCCCN)C(=O)N[C@@H](CO)C(=O)N[C@@H](CC(C)C)C(=O)N[C@H](CN[C@@H](CCSC)C(=O)N[C@@H](Cc1c[nH]c2ccccc12)C(=O)N[C@H](C(=O)N[C@H](C(=O)N[C@@H](CCC(N)=O)C(=O)N[C@H](C(=O)O)C(C)C)[C@@H](C)O)[C@@H](C)CC)CC(C)C)OC(=O)CCCCCCCCCCCCCCC` gave an EC50 in assay [3] of 0.3 nM.
The same measure, in the same setting: as for `CCCCCCCCCCCCCCCC(=O)OC[C@H](CSC[C@H](N)C(=O)N[C@@H](CO)C(=O)N[C@@H](CCCCN)C(=O)N[C@@H](CCCCN)C(=O)N[C@@H](CCCCN)C(=O)N[C@@H](CCCCN)C(=O)N[C@@H](CO)C(=O)N[C@@H](CC(C)C)C(=O)N[C@H](CN[C@@H](CCSC)C(=O)N[C@@H](Cc1c[nH]c2ccccc12)C(=O)N[C@H](C(=O)N[C@H](C(=O)N[C@@H](CCC(N)=O)C(=O)N[C@H](C(=O)O)C(C)C)[C@@H](C)O)[C@@H](C)CC)CC(C)C)OC(=O)CCCCCCCCCCCCCCC`, the figure is 0.47 nM; as for `CCCCCCCCCCCCCCCC(=O)OCCC[C@H](CSC[C@H](N)C(=O)N[C@@H](CO)C(=O)N[C@@H](CCCCN)C(=O)N[C@@H](CCCCN)C(=O)N[C@@H](CCCCN)C(=O)N[C@@H](CCCCN)C(=O)N[C@@H](CO)C(=O)N[C@@H](CC(C)C)C(=O)N[C@H](CN[C@@H](CCSC)C(=O)N[C@@H](Cc1c[nH]c2ccccc12)C(=O)N[C@H](C(=O)N[C@H](C(=O)N[C@@H](CCC(N)=O)C(=O)N[C@H](C(=O)O)C(C)C)[C@@H](C)O)[C@@H](C)CC)CC(C)C)OC(=O)CCCCCCCCCCCCCCC`, 0.38 nM.
Turning to `c1ccc(Cn2c(Sc3ncnc4c3sc3ncccc34)nnc2-c2ccncc2)cc1`, the IC50 in assay [4] amounted to 850 nM.

For orientation: EC50 means the concentration at which the effect is half-maximal. What is called IC50 is the concentration that inhibits the measured activity by half.
